Measurements published in PubChem BioAssay AID1963865 (Molecular Pharmacology Branch, DTP, NCI, 2024).

Tested on: KRAS PDC multicell spheroid viability
Experiment: Anticancer human tumor 825966-067-R-J1-PDC patient-derived colon carcinoma cell line growth inhibition [KRAS2]
Conditions: for IC50: curve of first compound; for viability, T/C: stronger effect = lower value; active means viability on the fitted dose curve at most 10% of control; inactive means the rest
How it was run: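 KRAS-mutant tumor cells were grown as spheroids with HUVEC endothelial cells and human MSCs as stroma. Targeted agents were tested alone and with KRAS pathway inhibitors. Doses started at or near clinical Cmax, or 10 microM, descending half-log.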

[1] = second compound 0.1 µM, first compound 0.000316 µM
[2] = second compound 0.1 µM, first compound 0.001 µM
[3] = second compound 0.1 µM, first compound 0.00316 µM
[4] = second compound 0.1 µM, first compound 0.01 µM
[5] = second compound 0.1 µM, first compound 0.0316 µM
[6] = second compound 0.316 µM, first compound 0.000316 µM
[7] = second compound 0.316 µM, first compound 0.001 µM
[8] = second compound 0.316 µM, first compound 0.00316 µM
[9] = second compound 0.316 µM, first compound 0.01 µM
[10] = second compound 0.316 µM, first compound 0.0316 µM
[11] = second compound 1 µM, first compound 0.000316 µM
[12] = second compound 1 µM, first compound 0.001 µM
[13] = second compound 1 µM, first compound 0.00316 µM
[14] = second compound 1 µM, first compound 0.01 µM
[15] = second compound 1 µM, first compound 0.0316 µM
[16] = second compound 3.16 µM, first compound 0.000316 µM
[17] = second compound 3.16 µM, first compound 0.001 µM
[18] = second compound 3.16 µM, first compound 0.00316 µM
[19] = second compound 3.16 µM, first compound 0.01 µM
[20] = second compound 3.16 µM, first compound 0.0316 µM
[21] = second compound 10 µM, first compound 0.000316 µM
[22] = second compound 10 µM, first compound 0.001 µM
[23] = second compound 10 µM, first compound 0.00316 µM
[24] = second compound 10 µM, first compound 0.01 µM
[25] = second compound 10 µM, first compound 0.0316 µM
[26] = second compound 0.1 µM, first compound 0.1 µM
[27] = second compound 0.316 µM, first compound 0.1 µM
[28] = second compound 1 µM, first compound 0.1 µM
[29] = second compound 3.16 µM, first compound 0.1 µM
[30] = second compound 10 µM, first compound 0.1 µM
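Further: spheroids exposed to compounds for 7 days.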
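Wherever viability, T/C is given: 100% = DMSO vehicle control viability.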

CC(=O)Nc1cccc(-n2c(=O)n(C3CC3)c(=O)c3c(Nc4ccc(I)cc4F)n(C)c(=O)c(C)c32)c1 + CC1OCC2(CCN(c3cnc(Sc4ccnc(N)c4Cl)c(N)n3)CC2)C1N
active: viability, T/C [21] 9.62% | viability, T/C [22] 7.27% | viability, T/C [23] 6.92% | viability, T/C [24] 5.11% | viability, T/C [25] 14.4%
inactive: viability, T/C (second compound 0.1 µM, first compound 0.0001 µM) 93.2% | viability, T/C [1] 98.9% | viability, T/C [2] 125% | viability, T/C [3] 103% | viability, T/C [4] 93.5% | viability, T/C [5] 56.5% | viability, T/C (second compound 0.316 µM, first compound 0.0001 µM) 96.3% | viability, T/C [6] 91.8% | viability, T/C [7] 110% | viability, T/C [8] 116% | viability, T/C [9] 64.8% | viability, T/C [10] 49.6% | viability, T/C (second compound 1 µM, first compound 0.0001 µM) 80.8% | viability, T/C [11] 128% | viability, T/C [12] 105% | viability, T/C [13] 61.2% | viability, T/C [14] 27.2% | viability, T/C [15] 21.5% | viability, T/C (second compound 3.16 µM, first compound 0.0001 µM) 97.1% | viability, T/C [16] 108% | viability, T/C [17] 39.6% | viability, T/C [18] 28.2% | viability, T/C [19] 18.4% | viability, T/C [20] 15.8% | viability, T/C (second compound 10 µM, first compound 0.0001 µM) 57.4%
> 31.6 nM: IC50 (second compound 0.1 µM) | IC50 (second compound 0.316 µM)
0.827 nM: IC50 (second compound 3.16 µM)
4.52 nM: IC50 (second compound 1 µM)
0.12 nM: IC50 (second compound 10 µM)

CC(C)NCC(C(=O)N1CCN(c2ncnc3c2C(C)CC3O)CC1)c1ccc(Cl)cc1 (stereo not given) + COc1cc2nc(C)nc(NC(C)c3cc(N)cc(C(F)(F)F)c3)c2cc1OC1CCOC1
2500 nM: IC50 (second compound 0.1 µM)
1740 nM: IC50 (second compound 1 µM)
< 31.6 nM: IC50 (second compound 10 µM)
2450 nM: IC50 (second compound 0.316 µM)
active: viability, T/C (second compound 0.316 µM, first compound 10 µM) 8.59% | viability, T/C (second compound 3.16 µM, first compound 10 µM) 5.94% | viability, T/C [30] 5.84% | viability, T/C (second compound 10 µM, first compound 0.316 µM) 3.69% | viability, T/C (second compound 10 µM, first compound 1 µM) 1.56% | viability, T/C (second compound 10 µM, first compound 3.16 µM) 2.14% | viability, T/C (second compound 10 µM, first compound 10 µM) 3.53%
1880 nM: IC50 (second compound 3.16 µM)
inactive: viability, T/C [5] 122% | viability, T/C [26] 113% | viability, T/C (second compound 0.1 µM, first compound 0.316 µM) 148% | viability, T/C (second compound 0.1 µM, first compound 1 µM) 97.1% | viability, T/C (second compound 0.1 µM, first compound 3.16 µM) 39.4% | viability, T/C (second compound 0.1 µM, first compound 10 µM) 11.2% | viability, T/C [10] 103% | viability, T/C [27] 129% | viability, T/C (second compound 0.316 µM, first compound 0.316 µM) 122% | viability, T/C (second compound 0.316 µM, first compound 1 µM) 130% | viability, T/C (second compound 0.316 µM, first compound 3.16 µM) 29.7% | viability, T/C [15] 114% | viability, T/C [28] 128% | viability, T/C (second compound 1 µM, first compound 0.316 µM) 151% | viability, T/C (second compound 1 µM, first compound 1 µM) 75.7% | viability, T/C (second compound 1 µM, first compound 3.16 µM) 37.4% | viability, T/C (second compound 1 µM, first compound 10 µM) 7.58% | viability, T/C [20] 111% | viability, T/C [29] 125% | viability, T/C (second compound 3.16 µM, first compound 0.316 µM) 104% | viability, T/C (second compound 3.16 µM, first compound 1 µM) 97.7% | viability, T/C (second compound 3.16 µM, first compound 3.16 µM) 10.9% | viability, T/C [25] 22.4%

CN(C)C/C=C/C(=O)Nc1cc2c(Nc3ccc(F)c(Cl)c3)ncnc2cc1O[C@H]1CCOC1 + CNCc1ccccc1-c1csc(C(C)Nc2nc(C)nc3cc(OC)c(OC)cc23)c1
inactive: viability, T/C [1] 103% | viability, T/C [2] 92.3% | viability, T/C [3] 98% | viability, T/C [4] 113% | viability, T/C [5] 88.8% | viability, T/C [26] 106% | viability, T/C [6] 123% | viability, T/C [7] 108% | viability, T/C [8] 107% | viability, T/C [9] 105% | viability, T/C [10] 99.3% | viability, T/C [27] 92.4% | viability, T/C [11] 110% | viability, T/C [12] 101% | viability, T/C [13] 89.5% | viability, T/C [14] 107% | viability, T/C [15] 108% | viability, T/C [28] 106% | viability, T/C [16] 128% | viability, T/C [17] 113% | viability, T/C [18] 107% | viability, T/C [19] 1.05% | viability, T/C [20] 130% | viability, T/C [29] 104%
active: viability, T/C [21] 1.54% | viability, T/C [22] 0.37% | viability, T/C [23] 0.43% | viability, T/C [24] 1.89% | viability, T/C [25] 1.87% | viability, T/C [30] 2.49%
< 0.316 nM: IC50 (second compound 10 µM)
> 100 nM: IC50 (second compound 0.1 µM) | IC50 (second compound 0.316 µM) | IC50 (second compound 1 µM) | IC50 (second compound 3.16 µM)

CC(C)n1nc(-c2ccc3oc(N)nc3c2)c2c(N)ncnc21 + CC1OCC2(CCN(c3cnc(Sc4ccnc(N)c4Cl)c(N)n3)CC2)C1N
< 0.316 nM: IC50 (second compound 10 µM)
inactive: viability, T/C [1] 89.9% | viability, T/C [2] 93.2% | viability, T/C [3] 133% | viability, T/C [4] 162% | viability, T/C [5] 132% | viability, T/C [26] 138% | viability, T/C [6] 101% | viability, T/C [7] 115% | viability, T/C [8] 133% | viability, T/C [9] 166% | viability, T/C [10] 132% | viability, T/C [27] 109% | viability, T/C [11] 115% | viability, T/C [12] 111% | viability, T/C [13] 162% | viability, T/C [14] 170% | viability, T/C [15] 140% | viability, T/C [28] 84.8% | viability, T/C [16] 125% | viability, T/C [17] 129% | viability, T/C [18] 140% | viability, T/C [19] 123% | viability, T/C [20] 127% | viability, T/C [29] 81.2% | viability, T/C [21] 30.2% | viability, T/C [22] 62.6% | viability, T/C [23] 32.7% | viability, T/C [24] 30.8% | viability, T/C [25] 61.5% | viability, T/C [30] 24.8%
> 100 nM: IC50 (second compound 0.1 µM) | IC50 (second compound 0.316 µM) | IC50 (second compound 1 µM) | IC50 (second compound 3.16 µM)
